From patent US9775354B2, “Herbicidal composition having improved plant safety” (priority 2013, dated 2017)

Tests used:
Assay type in all cases: in vivo
[1] = test system: timothy (Phleum pratense L.); assay: Test Example 4: growth inhibition of timothy after foliar treatment (pot test); conditions: compound A 100 g/ha, compound B not added; sixth day after treatment
Source text: (§1) On the seventh day after treatment, the state of growth of the wheat was visually observed to determine the growth inhibition rate (%) in accordance with the following evaluation standards. The results are shown in Table 1. • Growth inhibition rate (%)=0 (equivalent to the non-treated area) to 100 (complete kill)
(§2) Upland field soil was put into a 1/1,000,000 ha pot, and seeds of timothy (Phleum pratense L.) were sown. When the timothy reached 1.6 to 2.0-leaf stage, predetermined amounts of compound A and isoxadifen-ethyl, mefenpyr-diethyl or cloquintocet-mexyl were diluted with water (in an amount corresponding to 300 L/ha) containing 0.5 vol % of an agricultural adjuvant (tradename: Destiny HC, manufactured by Winfield Solutions, LLC) and applied for foliar treatment by a small sprayer.
On the sixth day after treatment, the state of growth of the timothy was visually observed to evaluate the growth inhibition rate (%) in the same manner as in the above Test Example 1.

[2] = test system: kentucky bluegrass (Poa pratensis L.); assay: Test Example 6: chlorosis in kentucky bluegrass after foliar treatment (pot test); conditions: compound A 100 g/ha, compound B not added; seventh day after treatment; degree 0 to 5.0
Procedure: Degree of chlorosis=0 (equal to the non-treated area) to 5.0 (complete chlorosis)
as §2, with “kentucky bluegrass (Poa pratensis” for “timothy (Phleum pratense”, “kentucky bluegrass” for “timothy”, “2-leaf” for “1.6 to 2.0-leaf”
On the seventh day after treatment, chlorosis which developed in the kentucky bluegrass was evaluated in the same manner as in the above Test Example 2.

[3] = test system: bentgrass (Agrostis stolonifera L.); assay: Test Example 5: growth inhibition of bentgrass after foliar treatment (pot test); conditions: compound A 100 g/ha, compound B not added; 24th day after treatment
Source text: as §1
as §2, with “turf” for “seeds”, “bentgrass (Agrostis stolonifera” for “timothy (Phleum pratense”, “was put.” for “were sown.”, “bentgrass” for “timothy”, “a height of […],” for “1.6 to 2.0-leaf stage,”, “and” for “and isoxadifen-ethyl,”
On the 24th day after treatment, the state of growth of the bentgrass was visually observed to determine the growth inhibition rate (%) in the same manner as in the above Test Example 1.

[4] = test system: perennial ryegrass (Lolium perenne L.); assay: Test Example 3: chlorosis in perennial ryegrass after foliar treatment (pot test); conditions: compound A 100 g/ha, compound B not added; sixth day after treatment; degree 0 to 5.0
Source text: Degree of chlorosis=0 (equal to the non-treated area) to 5.0 (complete chlorosis) Upland field soil was put into a 1/1,000,000 ha pot, and seeds of perennial ryegrass (Lolium perenne L.) were sown. […] Destiny HC, manufactured by Winfield Solutions, LLC.) and applied for foliar treatment by a small sprayer.

[5] = test system: wheat (Triticum aestivum L.); assay: Test Example 1: growth inhibition of wheat after foliar treatment (pot test); conditions: compound B not added, seventh day after treatment
Source text: Upland field soil was put into a 1/1,000,000 ha pot, and seeds of wheat (Triticum aestivum L.) were sown. […] Destiny HC, manufactured by Winfield Solutions, LLC.) and applied for foliar treatment by a small sprayer. On the seventh day after treatment, the state of growth of the wheat was visually observed to determine the growth inhibition rate (%) in accordance with the following evaluation standards.

## CCn1ncc(C(=O)c2ccc(S(C)(=O)=O)c(OCCOC)c2C)c1OC(C)OC(=O)OC (stereo not drawn) [Compound A, 1-(1-ethyl-4-(3-(2-methoxyethoxy)-2-methyl-4-(methylsulfonyl)benzoyl)-1H-pyrazol-5-yloxy)ethyl methyl carbonate]
[1]
  Growth inhibition rate (%) of timothy: 10%
[2]
  Chlorosis in kentucky bluegrass: 1.7
[3]
  Growth inhibition of bentgrass (%): 50%
[4]
  Chlorosis in perennial ryegrass: 0.4
[5]; compound A 100 g/ha
  Growth inhibition rate (%) of wheat: 40%
[5]; compound A 150 g/ha
  Growth inhibition rate (%) of wheat: 40%
